Assay results taken from patent US9708336B2, “Metallo-beta-lactamase inhibitors” (priority 2014, dated 2017).
Where two headings read alike, the source gives them in different places.

What was measured:
NDM-1 = NDM-1 (Klebsiella pneumoniae, UniProt C7C422); assay: biochemical; format: biochemical; conditions: read-out: NDM-1 IC50
Description: Enzyme Activity: Determination of IC50
The Class B enzyme activities were measured in the presence of the test inhibitor in a fluorescence assay against a commercially available substrate consisting of a cephalosporin core linking 7-hydroxycoumarin to fluorescein (CCF2-FA). The enzyme (NDM-1, IMP-1 or VIM-1) and the substrate were diluted in 100 mM KH2PO4 buffer (pH 7) containing 0.005% Tween-20 and 10 μM ZnSO4. […] The test inhibitor was dissolved in dimethylsulfoxide and diluted 1:50 in the assay, resulting in a final concentration range of 20 uM to 0.00063 uM. In a 384-well microplate, the test inhibitor was incubated with the metallo-β-lactamase enzyme and the substrate for 2 hours at 25° C. Fluorescence at 460 nm following excitation at 405 nm was measured. The IC50 value was determined from semi-logarithmic plots of enzyme inhibition versus inhibitor concentration, with a curve generated using a 4-parameter fit.

VIM-1 = VIM-1 (Pseudomonas aeruginosa (strain ATCC 15692 / DSM 22644 / CIP 104116 / JCM 14847 / LMG 12228 / 1C / PRS 101 / PAO1), UniProt A0A0F7KYQ8); assay: Enzyme activity: determination of IC50, fluorescence assay with CCF2-FA substrate (VIM-1); format: biochemical
IMP-1 = IMP-1 (Serratia marcescens, UniProt P52699); assay: biochemical; format: biochemical; conditions: read-out: IMP-1 IC50
Chain of IMP-1 (P52699 whole entry, looked up): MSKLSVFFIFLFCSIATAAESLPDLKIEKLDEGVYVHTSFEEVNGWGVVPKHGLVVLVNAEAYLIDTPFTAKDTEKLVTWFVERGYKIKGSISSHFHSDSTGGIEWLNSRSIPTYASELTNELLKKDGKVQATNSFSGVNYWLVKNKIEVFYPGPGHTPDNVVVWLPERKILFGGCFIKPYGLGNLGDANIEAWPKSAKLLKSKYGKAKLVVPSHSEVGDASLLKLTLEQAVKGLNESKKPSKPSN

[1] = system: Klebsiella pneumoniae expressing VIM-1 (IHMA599644); assay: Antibiotic potentiation activity: synergistic concentration (MITC95) with imipenem, OD600 growth; format: cell-based
Procedure, shortened: (§1)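 Bacteria were grown overnight on agar at 35 °C, diluted 1:100 from saline into 1.1× CAMHB, then given compound with or without imipenem (4 μg/ml in assay, optionally 1 μg/ml). Endpoint: absorbance at 22–24 h.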

[2] = system: Serratia marcescens expressing IMP-1 (CL5741); assay: as above; format: cell-based
Procedure, shortened: as §1

[3] = system: Escherichia coli expressing NDM-1 (CLB30016); assay: as above; format: cell-based
Procedure, shortened: as §1

[4] = NDM-1 enzyme, CCF2-FA substrate
[5] = IMP-1 enzyme, CCF2-FA substrate
[6] = Klebsiella pneumoniae IHMA599644 (VIM-1), 95% growth inhibition
[7] = Serratia marcescens CL5741 (IMP-1), 95% growth inhibition
[8] = (CLB30016, NDM-1), 95% growth inhibition
[9] = NDM-1 enzyme, CCF2-FA fluorescence assay
[10] = VIM-1 enzyme, CCF2-FA fluorescence assay, read-out: VIM-1 IC50
[11] = IMP-1 enzyme, CCF2-FA fluorescence assay
[12] = Klebsiella pneumoniae expressing VIM-1 (IHMA599644), 95% growth inhibition
[13] = Serratia marcescens expressing IMP-1 (CL5741), 95% growth inhibition
[14] = Escherichia coli expressing NDM-1 (CLB30016), 95% growth inhibition
[15] = VIM-1 enzyme, CCF2-FA substrate, read-out: VIM-1 IC50
[16] = fluorescence assay with CCF2-FA substrate
[17] = fluorescence assay with CCF2-FA substrate, read-out: VIM-1 IC50
[18] = IHMA599644 (VIM-1), 95% inhibition of bacterial growth
[19] = CL5741 (IMP-1), 95% inhibition of bacterial growth
[20] = CLB30016 (NDM-1), 95% inhibition of bacterial growth
[21] = concentration giving 95% inhibition of bacterial growth

Chain of NDM-1 (C7C422 whole entry, looked up, species assumed): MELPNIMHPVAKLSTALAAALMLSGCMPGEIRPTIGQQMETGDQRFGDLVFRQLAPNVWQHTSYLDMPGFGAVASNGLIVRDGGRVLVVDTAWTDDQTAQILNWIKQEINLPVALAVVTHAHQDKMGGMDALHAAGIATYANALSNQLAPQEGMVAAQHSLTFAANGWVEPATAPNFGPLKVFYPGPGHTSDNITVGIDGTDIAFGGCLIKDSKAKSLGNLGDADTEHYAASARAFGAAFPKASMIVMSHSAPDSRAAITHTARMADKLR

| Structure (SMILES) | IC50 (NDM-1; [4]) | IC50 (IMP-1; [5]) | Klebsiella pneumoniae MITC95 [1, 6] | Serratia marcescens MITC95 [2, 7] | Escherichia coli MITC95 [3, 8] | IC50 (NDM-1; [9]) | IC50 (VIM-1; [10]) | IC50 (IMP-1; [11]) | Klebsiella pneumoniae MITC95 [1, 12] | Serratia marcescens MITC95 [2, 13] | Escherichia coli MITC95 [3, 14] | IC50 (NDM-1; [16]) | IC50 (VIM-1; [17]) | IC50 (IMP-1; [16]) | other results |
| --- | --- | --- | --- | --- | --- | --- | --- | --- | --- | --- | --- | --- | --- | --- | --- |
| NS(=O)(=O)c1c(C(F)(F)F)ccc([C@H]2CC[C@H](NC3CCCNC3)CC2)c1-c1nnn[nH]1 (stereo partly drawn) [Example 697, 3-[4-(piperidin-3-ylamino)cyclohexyl]-2-(1H-tetrazol-5-yl)-6-(trifluoromethyl)benzene sulfonamide] | 1.61 nM | 6.42 nM | 6.25 µM | 3.125 µM | 0.7813 µM | – | – | – | – | – | – | – | – | – | IC50 (VIM-1; VIM-1 IC50, VIM-1 enzyme, CCF2-FA substrate): 6.33 nM |
| NS(=O)(=O)c1cccc(-c2ccc(CNCc3nn[nH]n3)cc2)c1-c1nnn[nH]1 [Example 381, 2-(1H-tetrazol-5-yl)-4′-{[(2H-tetrazol-5-ylmethyl)amino]methyl}biphenyl-3-sulfonamide] | – | – | – | – | – | 2.25 nM | 357 nM | 25.4 nM | 50 µM | 0.7813 µM | 1.563 µM | – | – | – | – |
| Nc1ccc(-c2ccc(Br)c(S(N)(=O)=O)c2-c2nn[nH]n2)cn1 [Example 264, 3-(6-aminopyridin-3-yl)-6-bromo-2-(2H-tetrazol-5-yl)benzenesulfonamide] | – | – | – | – | – | 4.61 nM | 4.4 nM | 16.9 nM | 1.781 µM | 0.3828 µM | 0.04688 µM | – | – | – | – |
| CC1(O)CN(c2ccc(-c3cccc(S(N)(=O)=O)c3-c3nnn[nH]3)cn2)C1 [Example 635, 3-[6-(3-hydroxy-3-methyl-azetidin-1-yl)-3-pyridyl]-2-(1H-tetrazol-5-yl)benzenesulfonamide] | 4.92 nM | 91.5 nM | 112.5 µM | 7.813 µM | 2.148 µM | – | – | – | – | – | – | – | – | – | IC50 (VIM-1; [15]): 258 nM |
| CNC1CC(N2CCC(c3ccc(-c4ccc(C(F)(F)F)c(S(N)(=O)=O)c4-c4nnn[nH]4)cc3)CC2)C1 (stereo not drawn) [Example 799, 4′-{1-[3-(methylamino)cyclobutyl]piperidin-4-yl}-2-(1H-tetrazol-5-yl)-4-(trifluoromethyl)biphenyl-3-sulfonamide] | – | – | – | – | – | – | – | – | – | – | – | 3.89 nM | 15 nM | 1.05 nM | Klebsiella pneumoniae MITC95 [1, 18]: >200 µM; Serratia marcescens MITC95 [2, 19]: 3.125 µM; Escherichia coli MITC95 [3, 20]: 3.125 µM |
| CN(C)CCNc1nc2c(-c3cccc(S(N)(=O)=O)c3-c3nn[nH]n3)cccc2s1 [Example 640, 3-[2-[2-(dimethylamino)ethylami-no]-1,3-benzothiazol-4-yl]-2-(2H-tetrazol-5-yl)benzenesulfonamide] | 0.855 nM | 194 nM | 100 µM | 100 µM | 1.563 µM | – | – | – | – | – | – | – | – | – | IC50 (VIM-1; [15]): 9.84 nM |
| NS(=O)(=O)c1c(C(F)(F)F)ccc(NC2(C3CCNC3)CC2)c1-c1nnn[nH]1 (stereo not drawn) [Example 777, 3-[(1-pyrrolidin-3-ylcyclopropyl)amino]-2-(1H-tetrazol-5-yl)-6-(trifluoromethyl) benzenesulfonamide] | – | – | – | – | – | – | – | – | – | – | – | 23.3 nM | 6.73 nM | 51.3 nM | Klebsiella pneumoniae MITC95 [1, 18]: 6.25 µM; Serratia marcescens MITC95 [2, 19]: 12.5 µM; Escherichia coli MITC95 [3, 20]: 12.5 µM |
| Cn1cncc1C[C@@H](NCc1ccc(-c2cccc(S(N)(=O)=O)c2-c2nnn[nH]2)cc1)C(=O)O [Example 363, 3-methyl-N-{[3′-sulfamoyl-2′-(1H-tetrazol-5-yl)biphenyl-4-yl]methyl}-D-histidine] | – | – | – | – | – | 21.4 nM | 495 nM | 233 nM | 100 µM | 6.25 µM | 3.125 µM | – | – | – | – |
| NS(=O)(=O)c1cccc(C2=CCOCC2)c1-c1nnn[nH]1 [Example 140, 3-(3,6-dihydro-2H-pyran-4-yl)-2-(1H-tetrazol-5-yl)benzenesulfonamide] | – | – | – | – | – | – | – | – | – | – | – | 7.68 nM | 388 nM | 160 nM | Klebsiella pneumoniae expressing VIM-1 (IHMA 599644) MITC95 [1, 21]: 50 µM; Serratia marcescens expressing IMP-1 (CL5741) MITC95 [2, 21]: 6.25 µM; Escherichia coli expressing NDM-1 (CLB 30016) MITC95 [3, 21]: 0.5859 µM |
